Assay results reported in patent US11477982B2, “2-amino-5-oxyalkyl-pyrimidine derivatives and their use for controlling undesired plant growth” (Bayer CropScience Aktiengesellschaft, priority 2017, dated 2022).

How the values were obtained:
Assay type in all cases: in vivo
[1] = system: ABUTH: Abutilon theophrasti; assay: Pre-emergence herbicidal effect; details: for Herbicidal action against ABUTH: dosage 320 g/ha
Outline: (§1)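 Pre-emergence soil-surface spray. Formulation WP/EC, aqueous, +0.5% additive, 600 l/ha. Greenhouse ~3 wk; visual % score vs untreated (0% = control, 100% = dead).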

[2] = system: ALOMY: Alopecurus myosuroides; assay: Pre-emergence herbicidal effect; details: for Herbicidal action against ALOMY: dosage 320 g/ha
Outline: as §1

[3] = system: AMARE: Amaranthus retroflexus; assay: Pre-emergence herbicidal effect; details: for Herbicidal action against AMARE: pre-emergence, dosage 320 g/ha
Outline: as §1

AVEFA: Avena fatua = assay: Pre-emergence herbicidal effect; details: dosage 320 g/ha
Outline: as §1

[4] = system: ECHCG: Echinochloa crus-galli; assay: Pre-emergence herbicidal effect; details: for Herbicidal action against ECHCG: dosage 320 g/ha
Outline: as §1

HORMU: Hordeum murinum = assay: Pre-emergence herbicidal effect; details: for Herbicidal action against HORMU: pre-emergence, dosage 320 g/ha
Outline: as §1

LOLRI: Lolium rigidum = assay: Pre-emergence herbicidal effect; details: for Herbicidal action against LOLRI: dosage 320 g/ha
Outline: as §1

[5] = system: MATIN: Matricaria inodora; assay: Pre-emergence herbicidal effect; details: for Herbicidal action against MATIN: pre-emergence, dosage 320 g/ha
Outline: as §1

PHBPU: Ipomoea purpurea = assay: Pre-emergence herbicidal effect; details: for Herbicidal action against PHBPU: dosage 320 g/ha
Outline: as §1

[6] = system: POLCO: Polygonum convolvulus; assay: Pre-emergence herbicidal effect; details: for Herbicidal action against POLCO: dosage 320 g/ha
Outline: as §1

SETVI: Setaria viridis [7] = assay: Pre-emergence herbicidal effect; details: for Herbicidal action against SETVI: dosage 320 g/ha
Outline: as §1

STEME: Stellaria media [8] = assay: Pre-emergence herbicidal effect; details: for Herbicidal action against STEME: pre-emergence, dosage 320 g/ha
Outline: as §1

VERPE: Veronica persica [9] = assay: Pre-emergence herbicidal effect; details: dosage 320 g/ha
Outline: as §1

VIOTR: Viola tricolor [10] = assay: Pre-emergence herbicidal effect; details: dosage 320 g/ha
Outline: as §1

[11] = system: ABUTH: Abutilon theophrasti; assay: Post-emergence herbicidal effect; details: dosage 320 g/ha
Outline: (§2)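 Weeds grown from seed in sandy loam in the greenhouse were sprayed at the one-leaf stage, 2 to 3 weeks after sowing. Compounds formulated as WP or EC were applied as aqueous suspension or emulsion with 0.5% additive at 600 l/ha. Activity was scored visually after about 3 weeks versus untreated controls (100% = dead, 0% = as control).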

[12] = system: AMARE: Amaranthus retroflexus; assay: Post-emergence herbicidal effect; details: dosage 320 g/ha
Outline: as §2

[13] = system: ECHCG: Echinochloa crus-galli; assay: Post-emergence herbicidal effect; details: dosage 320 g/ha
Outline: as §2

SETVI: Setaria viridis [14] = assay: Post-emergence herbicidal effect; details: dosage 320 g/ha
Outline: as §2

STEME: Stellaria media [15] = assay: Post-emergence herbicidal effect; details: dosage 320 g/ha
Outline: as §2

VERPE: Veronica persica [16] = assay: Post-emergence herbicidal effect; details: dosage 320 g/ha
Outline: as §2

VIOTR: Viola tricolor [17] = assay: Post-emergence herbicidal effect; details: dosage 320 g/ha
Outline: as §2

[18] = Table 4a, dosage 20 g of a.i./ha
[19] = Table 4a, pre-emergence, dosage 20 g of a.i./ha
[20] = Table 4b, pre-emergence as titled, dosage 80 g of a.i./ha

SMILES | Herbicidal action against ABUTH [1] | Herbicidal action against ALOMY ([2]; pre-emergence) | Herbicidal action against AMARE [3] | Herbicidal action against AVEFA (AVEFA: Avena fatua) | Herbicidal action against ECHCG ([4]; pre-emergence) | Herbicidal action against HORMU (HORMU: Hordeum murinum) | Herbicidal action against LOLRI (LOLRI: Lolium rigidum) | Herbicidal action against MATIN [5] | Herbicidal action against PHBPU (PHBPU: Ipomoea purpurea) | Herbicidal action against POLCO [6] | Herbicidal action against SETVI (SETVI: Setaria viridis [7]; pre-emergence) | Herbicidal action against STEME (STEME: Stellaria media [8]) | Herbicidal action against VERPE (VERPE: Veronica persica [9]) | Herbicidal action against VIOTR (VIOTR: Viola tricolor [10]) | Herbicidal action against ABUTH [11] | Herbicidal action against AMARE [12] | Herbicidal action against ECHCG [13] | Herbicidal action against SETVI (SETVI: Setaria viridis [14]) | Herbicidal action against STEME (STEME: Stellaria media [15]) | Herbicidal action against VERPE (VERPE: Veronica persica [16]) | further results
CCC(C)(O)c1cnc(N[C@H]2c3cc(C)ccc3C[C@@H]2C)nc1 (some centres unmarked) [Example 1.14] | 100% | 100% | 100% | 100% | 100% | 100% | 100% | 100% | 100% | 100% | 100% | 100% | 100% | 100% | 90% | 100% | 100% | 90% | 100% | 90% | Herbicidal action against VIOTR (VIOTR: Viola tricolor [17]): 90%
C=CC(C)(O)c1cnc(N[C@H]2c3cc(C)ccc3C[C@@H]2C)nc1 (stereo partly drawn) [Example 1.15, 2-(2-{[(1R,2S)-2,6-Dimethyl-2,3-dihydro-1H-inden-1-yl]amino}pyrimidin-5-yl)but-3-en-2-ol] | 100% | 100% | 100% | 100% | 100% | 100% | 100% | 100% | 100% | 100% | 100% | 100% | 100% | 100% | 90% | 90% | 100% | 80% | 100% | 90% | Herbicidal action against VIOTR (VIOTR: Viola tricolor [17]): 80%
C#CC(C)(O)c1cnc(N[C@H]2c3cc(C)ccc3C[C@@H]2C)nc1 (some centres unmarked) [Example 1.18] | 100% | 100% | 100% | 100% | 100% | 100% | 100% | 100% | 100% | 100% | 100% | 100% | 100% | 100% | 90% | 90% | 100% | 90% | 100% | 100% | Herbicidal action against VIOTR (VIOTR: Viola tricolor [17]): 90%
CC#CC(C)(O)c1cnc(N[C@H]2c3cc(C)ccc3C[C@@H]2C)nc1 (some centres unmarked) [Example 1.22] | 100% | 100% | 100% | 100% | 100% | 100% | 100% | 100% | 100% | 100% | 100% | 100% | 100% | 100% | 90% | 90% | 100% | 100% | 90% | 90% | Herbicidal action against VIOTR (VIOTR: Viola tricolor [17]): 90%
COC(C)(C)c1cnc(N[C@H]2c3cc(C)ccc3C[C@@H]2C)nc1 [Example 1.24] | 100% | 100% | 100% | 100% | 100% | 100% | 100% | 100% | 90% | 100% | 100% | 100% | 100% | 100% | 90% | 90% | 100% | 90% | 100% | 90% | Herbicidal action against VIOTR (VIOTR: Viola tricolor [17]): 90%
CCc1ccc2c(c1)[C@H](Nc1ncc(C(C)(C)O)cn1)CC2 [Example 1.31] | 100% | 100% | 100% | 100% | 100% | 100% | 100% | 100% | 100% | 100% | 100% | 100% | 100% | 100% | 90% | 100% | 100% | 90% | 100% | 90% | Herbicidal action against VIOTR (VIOTR: Viola tricolor [17]): 90%
Cc1ccc2c(c1)[C@H](Nc1ncc(C(C)O)c(C)n1)CCC2 (some centres unmarked) [Example 1.48] | 100% | 100% | 100% | 90% | 100% | 100% | 100% | 100% | 90% | 100% | 100% | 100% | 100% | 100% | 80% | 90% | 100% | 90% | 90% | 90% | Herbicidal efficacy against ABUTH [1, 18]: 90; Herbicidal efficacy against ALOMY [2, 19]: 70; Herbicidal efficacy against ALOMY [2, 20]: 50; Herbicidal efficacy against AMARE [3, 20]: 80; Herbicidal efficacy against ECHCG [4, 19]: 80; Herbicidal efficacy against ECHCG [4, 20]: 90; Herbicidal efficacy against HORMU (HORMU: Hordeum murinum; [20]): 20; Herbicidal efficacy against LOLRI (LOLRI: Lolium rigidum; [18]): 90; Herbicidal efficacy against MATIN [5, 20]: 70; Herbicidal efficacy against PHBPU (PHBPU: Ipomoea purpurea; [18]): 70; Herbicidal efficacy against POLCO [6, 18]: 100; Herbicidal efficacy against SETVI (SETVI: Setaria viridis [7]; [19]): 100; Herbicidal efficacy against SETVI (SETVI: Setaria viridis [7]; [20]): 70; Herbicidal efficacy against STEME (STEME: Stellaria media [8]; [20]): 80; Herbicidal action against VIOTR (VIOTR: Viola tricolor [17]): 80%
CCc1ccc2c(c1)[C@H](Nc1ncc(C(C)O)c(C)n1)CC2 (some centres unmarked) [Example 1.50] | 100% | 100% | 100% | 100% | 100% | 90% | 100% | 100% | 100% | 100% | 100% | 100% | 100% | 100% | 80% | 90% | 100% | 90% | 100% | 90% | Herbicidal action against VIOTR (VIOTR: Viola tricolor [17]): 90%
